Test results from ChEMBL document CHEMBL5096149, “Recent Update on Targeting c-MYC G-Quadruplexes by Small Molecules for Anticancer Therapeutics” (J Med Chem, 2021).

Columns and labels:
[1] = test system: Quadruplex DNA; experiment: Binding affinity to c-MYC G-quadruplex DNA (unknown origin) assessed as association constant by fluorescence spectroscopy; format: nucleic-acid assay
[2] = test system: Quadruplex DNA; experiment: Thermal stabilization of c-MYC G-quadruplex DNA (unknown origin) assessed as change in melting temperature at 1:5 ratio by FRET melting assay; format: nucleic-acid assay
[3] = test system: HeLa; experiment: Antiproliferative activity against human HeLa cells assessed as inhibition of cell growth by XTT assay; format: functional, cell-based
[4] = test system: A549; experiment: Antiproliferative activity against human A549 cells assessed as inhibition of cell growth by XTT assay; format: functional, cell-based
[5] = Antiproliferative activity against human Kidney epithelial cells assessed as inhibition of cell growth by XTT assay; format: toxicity, cell-based
[6] = test system: Quadruplex DNA; experiment: Binding affinity to c-MYC G-quadruplex DNA (unknown origin) assessed as association rate constant by isothermal titration calorimetry method; format: nucleic-acid assay
[7] = test system: MCF7; experiment: Antiproliferative activity against human MCF7 cells assessed as inhibition of cell growth by XTT assay; format: functional, cell-based
[8] = test system: HT-1080; experiment: Antiproliferative activity against human HT-1080 cells assessed as inhibition of cell growth by celltiter-glo luminescent cell viability assay; format: functional, cell-based
[9] = test system: Quadruplex DNA; experiment: Binding affinity to human c-MYC G-quadruplex (Pu24T) DNA assessed as first order binding constant by isothermal titration calorimetry method; format: nucleic-acid assay
[10] = test system: Quadruplex DNA; experiment: Binding affinity to human c-MYC G-quadruplex (Pu24T) DNA assessed as second order binding constant by isothermal titration calorimetry method; format: nucleic-acid assay
[11] = test system: Quadruplex DNA; experiment: Binding affinity to human c-MYC G-quadruplex (Pu24T) DNA assessed as first order binding constant by fluorescence spectroscopy; format: nucleic-acid assay
[12] = test system: Quadruplex DNA; experiment: Binding affinity to human c-MYC G-quadruplex (Pu24T) DNA assessed as second order binding constant by fluorescence spectroscopy; format: nucleic-acid assay
[13] = test system: Quadruplex DNA; experiment: Thermal stabilization of human c-MYC G-quadruplex (Pu24T) DNA assessed as change in melting temperature at 1:2 ratio by circular dichroism spectroscopy; format: nucleic-acid assay
[14] = test system: HeLa; experiment: Cytotoxicity against human HeLa cells assessed as inhibition of cell viability incubated for 48 hrs by MTT assay; format: functional, cell-based
[15] = Cytotoxicity against human HEK cells assessed as inhibition of cell viability incubated for 48 hrs by MTT assay; format: functional, cell-based; conditions: HEK293, 48 h

Structure (SMILES) | Ka [1] | ΔTm [2] | IC50 [3] | IC50 [4] | IC50 [5] | Ka [6] | IC50 [7] | IC50 [8] | K [9] | K [10] | K [11] | K [12] | ΔTm [13] | IC50 [14] | IC50 [15]
CN(C)CCCOc1cc(C(=O)NCc2cn(-c3cccc(NC(=O)C4CCCN4)c3)nn2)cc(C(=O)NCc2cn(-c3cccc(NC(=O)C4CCCN4)c3)nn2)c1 (configuration not stated) | 5.55 10^5/M | 15 °C | 8.3 µM | 9.2 µM | > 50 µM | 7 10^5/M | 3.8 µM |  |  |  |  |  |  |  | 
CN(C)c1cccc2c(S(=O)(=O)N(Cc3cn(C(C)(C)C(=O)OC[C@H]4O[C@@H](n5cnc6c(=O)[nH]c(N)nc65)[C@@H]5OC(C)(C)O[C@@H]54)nn3)Cc3cn(C(C)(C)C(=O)OC[C@H]4O[C@@H](n5cnc6c(=O)[nH]c(N)nc65)[C@@H]5OC(C)(C)O[C@@H]54)nn3)cccc12 | 4.8 10^7/M | 12.6 °C |  |  |  |  |  | 18.9 µM |  |  |  |  |  |  | 
O=c1c(O)c(-c2ccc(O)c(O)c2)oc2cc(O)cc(O)c12 [QUERCETIN] |  |  |  |  |  |  |  |  | 1.57 10^7/M | 8.5 10^5/M | 0.72 10^7/M | 1.2 10^5/M | 10.3 °C | 4 µM | 0.12 µM
